Each structure is given as a SMILES string.

The text below walks through data of patent US7795208B2, “Methods of using deacetylase inhibitors to promote cell differentiation and regeneration” (The Salk Institute for Biological Study, priority 2001, dated 2010).

The test system of one assay is MLC3F-lacZ-nls construct. As to the kind of experiment: β-Galactosidase assay of cells transfected with MLC3F-lacZ-nls. The assay is classed as cell-based, mouse. The settings on record: transfected cells exposed in GM, then DM 48 hours; vs non-treated cells. The protocol: FIGS. 4A-C illustrate that embryos exposed to DI display enhanced somitogenesis and increased muscle gene expression. […] Cells were then exposed to TSA (50 nM) in GM and subsequently switched to DM for 48 hours. Cells were stained to detect β-galactosidase activity. FIG. 4B is a picture of E 10.5 embryos derived from MLC1/3F-nLacZ transgenic mice exposed to either TSA or VPA treatment (see Example 1) and stained for 1 hour at 30° C. to detect β-galactosidase activity. […] FIG. 4C is a Western blot of extracts derived from total embryos exposed to either TSA or VPA; MHC is detected.
Cells transfected with MLC-lacZ-nls were washed twice in PBS, fixed in 4% paraformaldeheyde-PBS for 5 min, washed twice in PBS, and stained for 2-5 hrs with 5 mM potassium ferrycyanide, 5 mM potassium ferrocyanide, 2 mM MgCl2, 1 mg/ml X-gal (5-bromo-4-chloro-3-indolyl-β-D-galactoside).

Another assay concerns MyoD. As to the kind of experiment: In vivo acetylation assay (3H-acetate incorporation). The assay is classed as cell-based, mouse. Particulars: myoblasts cultured in GM. The protocol: In FIG. 3A, MyoD acetylation in undifferentiated C2C12 myoblasts (GM) untreated (−) or treated with either sodium butyrate (Butyr.) or TSA and in differentiated myotubes (abbrev. DM in FIG. 3A, but not to be confused with the abbreviation for “differentiation medium” as used elsewhere herein) was measured by ^3H incorporation of exogenously transfected Flag-tagged MyoD following metabolic labeling with ^3H sodium acetate as described in Sartorelli, V., et al., Molecular Cell 4:725-34 (1999). […] Chromatin was immunoprecipitated with antibodies against acetyl-histone 4 (AcH4) or IgG (as a control). Purified DNA from anti-AcH4 immunoprecipitated chromatin was analyzed by PCR using primers recognizing GAPDH promoter and MCK enhancer as described in Example 1. Unbound DNA (lanes 2 and 3, top panel) is an aliquot of chromatin not immunoprecipitated by anti-AcH4 antibody and amplified with GAPDH primers. Input (lanes 2 and 3, bottom panel) is an aliquot (1%) of the chromatin analyzed before the immunoprecipitation to quantify the amount of DNA present in different samples. […] Myoblasts were then formaldehyde cross-linked and processed.
In vivo acetylation assay was performed as described in Sartorelli, V., et al., Molecular Cell 4:725-34 (1999).
The acetylation of MyoD by ^3H-acetate incorporation in myoblasts, cultured in either the absence or presence of TSA, was evaluated. […]

Assay [1] has as its system human skeletal myocytes (HSkM). Nature of the assay: MHC-positive myotube formation in primary human skeletal myocytes. The format is cell-based. The settings on record: HSkM treated 24 hours in GM, then DM without TSA 48 hours. The protocol:
Cellular extracts were obtained and analyzed by Western blotting for the presence of MHC, tubulin, and myogenin. […] Nuclei were stained with DAPI. […] Additionally, RT-PCR was performed on RNA obtained form cells treated with TSA (T) or without (-) TSA with specific primers for either MCK or GAPDH. […] Nuclei were stained with DAPI. […] Cells were grown in GM and treated with TSA for 24 hours, then switched to DM in the absence of TSA for additional 48 hours. Nuclei were stained with DAPI. Additionally, a Western blot analysis of MHC and tubulin expression in either untreated or TSA-treated (T) HSkM is shown. […] Nuclei were stained with DAPI. Mouse muscle myoblast C2C12 cells (obtained from the American Type Culture Collection, ATCC CRL-1772) and CC42 cells (from Dr. Kenneth Walsh, Tufts University School of Medicine) were cultured in DMEM supplemented with 20% fetal bovine serum, 2 mM glutamine and 1× kanamycin (growth medium, GM). Cellular differentiation was induced with DMEM supplemented with 2% horse serum and 1× insulin, transferring, selenium (Life Technologies). Human skeletal myocytes (CC-2561) were purchased from Clonetics. […] Following transfections, luciferase activity was determined using the Dual-Luciferase reporter assay system (Promega) on a microtiter luminescence detection system (MLX, Dynex). […]

For the compound `CC(/C=C/C(=O)NO)=C\[C@@H](C)C(=O)c1ccc(N(C)C)cc1` [TSA, trichostatin A], the β-galactosidase-positive nuclei entry with MLC3F-lacZ-nls construct is reported as “increased β-galactosidase-positive nuclei”. Moreover, the “incorporation of 3H-acetate into transfected MyoD” value in the assay with MyoD was “stimulated the incorporation”. For the same compound, in assay [1], the “formation of MHC-positive myotubes and MHC expression levels” value was “greatly enhanced the formation of MHC-positive myotubes and increased the MHC expression levels”.
